Measurements as given in patent US11690850B2, “Inhibitors of receptor interacting protein kinase I for the treatment of disease” (Board of Regents, The University of Texas System, priority 2019, dated 2023).

Assays:
[1] = system: human monocytic cell line U937; assay: Human U937 Cellular Necroptosis Assay; type: cell-based; settings: U-937; U937 cells stimulated with 25 ng/mL human TNFalpha and 25 μM z-VAD-FMK, 22 hr, viability by Cell Titer-Glo 2.0; average value across multiple runs; read-out: hU937 IC50
Procedure: Human U937 Cellular Necroptosis Assay
The human monocytic cell line U937 (CRL-1593.2) was purchased from ATCC. The cells were routinely maintained in RPMI-1640 Medium (Gibco, Catalog #11875-093) supplemented with 10% heat inactivated fetal bovine serum (Gibco, Catalog #16140-071), 100 units/mL penicillin and 100 μg/mL streptomycin (Gibco, Catalog #15140-122), in a humidified incubator (37° C., 5% CO2). For the assay, cells were resuspended in RPMI-1640 phenol red free Media (Gibco, Catalog #11835-030) supplemented with 10% fetal bovine serum (Sigma, Catalog #F2442), 100 units/mL penicillin and 100 ug/mL streptomycin. Cells were stimulated with 25 ng/mL human TNFalpha (Cell Sciences, Catalog #CSI15659B) and 25 μM z-VAD-FMK (R&D Systems, Catalog #FMK001) followed by seeding 5000 cells per well in a volume of 40 μL to a white, CulturPlate-384 (Perkin Elmer, Catalog #6007680). Stock solutions of the test compounds were prepared in 100% DMSO (Sigma, Catalog #D2650) and serially diluted 1:3 using 100% DMSO. Compounds were additionally diluted 1:40 in assay medium, and 10 μL/well was transferred to the plate. Following the compound addition the plate was incubated at 37° C. and 5% CO2 for 22 hr. After 22 hr, viability was assessed with the addition of 20 μL of Cell Titer-Glo 2.0 (Promega, Catalog #G9243). The tissue culture plate was shaken on an orbital shaker at 300 RPM for 15 minutes at room temperature in the dark. Luminescence was measured using a PerkinElmer Envision™ plate reader. IC50 values were calculated using a four-parameter logistic curve fit using Genedata Screener software. Results are shown below in Table 5, where the average value across multiple runs is given.

RIPK1 = RIPK1 (Homo sapiens (Human), UniProt Q13546); assay: ADP-Glo Kinase Assay; type: biochemical; settings: 5 nM RIPK1 protein, 50 μM ATP, 6 hr reaction, average value across multiple runs
Chain of RIPK1 (Q13546 1-327): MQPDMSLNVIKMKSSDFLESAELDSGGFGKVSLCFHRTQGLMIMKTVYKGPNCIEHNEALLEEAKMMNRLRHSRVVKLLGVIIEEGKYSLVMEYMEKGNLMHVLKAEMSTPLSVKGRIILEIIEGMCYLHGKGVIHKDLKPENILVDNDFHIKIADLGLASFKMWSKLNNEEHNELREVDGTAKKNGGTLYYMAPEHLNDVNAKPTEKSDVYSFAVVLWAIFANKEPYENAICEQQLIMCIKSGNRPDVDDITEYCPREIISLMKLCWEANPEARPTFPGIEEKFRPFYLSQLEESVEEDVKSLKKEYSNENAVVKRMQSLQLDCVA
Procedure: In order to measure RIPK1 activity the ADP-Glo kinase assay (Promega, Catalog #V7002) was used to measure the conversion of ATP to ADP. This enzymatic assay was performed in a 384-well white, Optiplate (Perkin Elmer, Catalog #6007299) with assay buffer consisting of 50 mM HEPES pH 7.5 (Gibco, Catalog #15630-080), 50 mM NaCl (Teknova, Catalog #S0252), 30 mM MgCl2 (Ambion, Catalog #AM9530G), 1 mM DTT (Santa Cruz Biotechnology, Catalog #sc-29089), 0.05% BSA (Sigma, Catalog #A3059-50G) and 0.02% CHAPS (Sigma, Catalog #C5070-5G). Stock solutions of the test compounds were prepared in 100% DMSO (Sigma, Catalog #D2650) and serially diluted 1:3 using 100% DMSO. Compounds were additionally diluted 1:40 in assay buffer, and 2 μL/well were transferred to the assay plate. 4 μL/well (final concentration of 5 nM) of RIPK1 protein (SignalChem, Catalog #R07-11G-05) diluted in assay buffer and added to the assay plate followed by a 10 minute preincutation at room temperature. 4 μL/well of ATP (Promega, Catalog #V7002) (final concentration of 50 μM) diluted in assay buffer were then added to the assay plate followed by a 6 hr reaction time. Final concentrations of RIPK1 and ATP refer to a 10 μL volume. Luminescence was measured using a BioTek Synergy™ NEO plate reader. IC50 values were calculated using a four-parameter logistic curve fit using Genedata Screener software. Results are shown below in Table 4, where the average value across multiple runs is given.

Row | Compound | IC50 (RIPK1) | IC50 [1]
1 | Cc1cc(=O)c(C(=O)Nc2c(Br)cccc2C(C)C)nn1-c1ccccc1 [Example 24, N-(2-bromo-6-isopropylphenyl)-6-methyl-4-oxo-1-phenyl-1,4-dihydropyridazine-3-carboxamide] | 489 nM | 2660 nM
2 | Cc1cc(=O)c(C(=O)Nc2cccc(Cl)c2F)nn1-c1cccc(Cl)c1 [Example 17, N-(3-chloro-2-fluorophenyl)-1-(3-chlorophenyl)-6-methyl-4-oxo-1,4-dihydropyridazine-3-carboxamide] | 52 nM | 631 nM
3 | Cc1cc(=O)c(C(=O)Nc2cccc(Cl)c2F)nn1-c1cc(F)ccc1F [Example 9, N-(3-chloro-2-fluorophenyl)-1-(2,5-difluorophenyl)-6-methyl-4-oxo-1,4-dihydropyridazine-3-carboxamide] | 78 nM | 170 nM
4 | Cc1cc(=O)c(C(=O)NC2CCn3nccc3N(C)C2=O)nn1-c1ccccc1 (stereo not drawn) [Example 72, 6-methyl-N-(4-methyl-5-oxo-5,6,7,8-tetrahydro-4H-pyrazolo[1,5-a][1,3]diazepin-6-yl)-4-oxo-l-phenyl-1,4-dihydropyridazine-3-carboxamide] | 90.6 nM | 222 nM
5 | Cc1cc(=O)c(C(=O)N[C@H]2COc3cc(C#N)ccc3N(C)C2=O)nn1-c1cccc(F)c1 [Example 61, (S)-N-(8-cyano-5-methyl-4-oxo-2,3,4,5-tetrahydrobenzo[b][1,4]oxazepin-3-yl)-1-(3-fluorophenyl)-6-methyl-4-oxo-1,4-dihydropyridazine-3-carboxamide] | 57.4 nM | 88 nM
6 | Cc1cc(=O)c(C(=O)N[C@@H]2C(=O)Nc3ncccc3O[C@@H]2C)nn1-c1ccccc1 [Example 80, 6-methyl-N-((2R,3S)-2-methyl-4-oxo-2,3,4,5-tetrahydropyrido[3,2-b]-[1,4]oxazepin-3-yl)-4-oxo-1-phenyl-1,4-dihydropyridazine-3-carboxamide] |  | 3710 nM
7 | Cc1cc(=O)c(C(=O)NC2CCc3ccccc3NC2=O)nn1-c1cncc(F)c1 (stereo not drawn) [Example 79, 1-(5-fluoropyridin-3-yl)-6-methyl-4-oxo-N-(2-oxo-2,3,4,5-tetrahydro-1H-benzo[b]azepin-3-yl)-1,4-dihydropyridazine-3-carboxamide] |  | 507 nM
8 | Cc1ccc(-n2nc(C(=O)N[C@H]3COc4cccnc4N(C)C3=O)c(=O)c(Cl)c2C)cc1F [Example 82, (S)-5-chloro-1-(3-fluoro-4-methyl-phenyl)-6-methyl-N-(5-methyl-4-oxo-2,3,4,5-tetrahydropyrido[3,2-b]-[1,4]oxazepin-3-yl)-4-oxo-1,4-dihydropyridazine-3-carboxamide] |  | 56.4 nM
9 | Cc1ccc(-n2nc(C(=O)N[C@H]3COc4cccnc4N(C)C3=O)c(=O)cc2C)cc1F [Example 75, (S)-1-(3-fluoro-4-methylphenyl)-6-methyl-N-(5-methyl-4-oxo-2,3,4,5-tetrahydro-pyrido[3,2-b][1,4]oxazepin-3-yl)-4-oxo-1,4-dihydropyridazine-3-carboxamide] |  | 28.4 nM
10 | Cc1cc(=O)c(C(=O)NC2CCc3ccccc3-n3ccnc32)nn1-c1ccccc1 (stereo not drawn) [Example 73, N-(5,6-dihydro-4H-benzo[f]imidazo[1,2-a]azepin-4-yl)-6-methyl-4-oxo-1-phenyl-1,4-dihydropyridazine-3-carboxamide] |  | 296 nM
11 | Cc1ccc(-n2nc(C(=O)N[C@H]3COc4cccnc4N(C)C3=O)c(=O)cc2C)cc1 [Example 77, (S)-6-methyl-N-(5-methyl-4-oxo-2,3,4,5-tetrahydropyrido[3,2-b][1,4]oxazepin-3-yl)-4-oxo-1-(p-tolyl)-1,4-dihydro-pyridazine-3-carboxamide] |  | 26.5 nM
12 | Cc1c(Cl)c(=O)c(C(=O)N[C@H]2COc3cccnc3N(C)C2=O)nn1-c1ccccc1 [Example 74, (S)-5-chloro-6-methyl-N-(5-methyl-4-oxo-2,3,4,5-tetrahydropyrido[3,2-b]-[1,4]oxazepin-3-yl)-4-oxo-1-phenyl-1,4-dihydropyridazine-3-carboxamide] |  | 58.2 nM

Second part, led by results:

Row | IC50 (RIPK1) | Compound | IC50 [1]
13 | 68.2 nM | COc1cccc(-n2nc(C(=O)NC3CCc4ccccc4NC3=O)c(=O)cc2C)c1 (stereo not drawn) [Example 67, 1-(3-methoxyphenyl)-6-methyl-4-oxo-N-(2-oxo-2,3,4,5-tetrahydro-1H-benzo[b]-azepin-3-yl)-1,4-dihydropyridazine-3-carboxamide] | 281 nM
14 | 57 nM | Cc1cc(=O)c(C(=O)NC2CCc3ccccc3NC2=O)nn1-c1ccccc1 (stereo not drawn) [Example 38, 6-Methyl-4-oxo-N-(2-oxo-2,3,4,5-tetrahydro-1H-benzo[b]azepin-3-yl)-1-phenyl-1,4-dihydropyridazine-3-carboxamide] | 82 nM
15 | 33 nM | Cc1cc(=O)c(C(=O)N[C@H]2COc3cc(C#N)ccc3N(C)C2=O)nn1-c1ccccc1 [Example 55, (S)-N-(8-cyano-5-methyl-4-oxo-2,3,4,5-tetrahydrobenzo[b][1,4]oxazepin-3-yl)-6-methyl-4-oxo-l-phenyl-1,4-dihydropyridazine-3-carboxamide] | 54 nM
16 | 85 nM | Cc1cc(=O)c(C(=O)NC2CCc3ccccc3NC2=O)nn1-c1ccc(C#N)cc1 (stereo not drawn) [Example 56, 1-(4-cyanophenyl)-6-methyl-4-oxo-N-(2-oxo-2,3,4,5-tetrahydro-1H-benzo[b]-azepin-3-yl)-1,4-dihydropyridazine-3-carboxamide] | 292 nM
17 | 27 nM | Cc1cc(=O)c(C(=O)NC2CCc3ccccc3NC2=O)nn1-c1cccc(F)c1 (stereo not drawn) [Example 54, 1-(3-fluorophenyl)-6-methyl-4-oxo-N-(2-oxo-2,3,4,5-tetrahydro-1H-benzo[b]-azepin-3-yl)-1,4-dihydropyridazine-3-carboxamide] | 53 nM
18 | 36 nM | Cc1c(Br)c(=O)c(C(=O)NC2CCc3ccccc3NC2=O)nn1-c1ccccc1 (stereo not drawn) [Example 42, 5-Bromo-6-methyl-4-oxo-N-(2-oxo-2,3,4,5-tetrahydro-1H-benzo[b]azepin-3-yl)-1-phenyl-1,4-dihydropyridazine-3-carboxamide] | 141 nM
19 | 8500 nM | Cc1cc(=O)c(C(=O)NC2CCc3cc(F)cc(F)c3NC2)nn1-c1ccccc1 (stereo not drawn) [Example 69, N-(7,9-difluoro-2,3,4,5-tetrahydro-1H-benzo[b]azepin-3-yl)-6-methyl-4-oxo-1-phenyl-1,4-dihydropyridazine-3-carboxamide] | 10000 nM
20 | 35 nM | Cc1cc(=O)c(C(=O)NC2CCc3ccccc3N(C)C2=O)nn1-c1ccccc1 (stereo not drawn) [Example 41, 6-methyl-N-(1-methyl-2-oxo-2,3,4,5-tetrahydro-1H-benzo[b]azepin-3-yl)-4-oxo-1-phenyl-1,4-dihydropyridazine-3-carboxamide] | 39 nM
21 | 20 nM | Cc1cc(=O)c(C(=O)NC2CCc3ccccc3NC2=O)nn1-c1ccc(F)cc1 (stereo not drawn) [Example 57, 1-(4-fluorophenyl)-6-methyl-4-oxo-N-(2-oxo-2,3,4,5-tetrahydro-1H-benzo[b]-azepin-3-yl)-1,4-dihydropyridazine-3-carboxamide] | 41 nM
22 | 33.5 nM | Cc1cc(=O)c(C(=O)NC2CCc3ccccc3NC2=O)nn1-c1ccccc1F (stereo not drawn) [Example 59, 1-(2-fluorophenyl)-6-methyl-4-oxo-N-(2-oxo-2,3,4,5-tetrahydro-1H-benzo[b]-azepin-3-yl)-1,4-dihydropyridazine-3-carboxamide] | 74 nM
23 | 36 nM | Cc1c(Cl)c(=O)c(C(=O)NC2CCc3cc(Cl)ccc3NC2=O)nn1-c1ccccc1 (stereo not drawn) [Example 40, 5-Chloro-N-(7-chloro-2-oxo-2,3,4,5-tetrahydro-1H-benzo[b]azepin-3-yl)-6-methyl-4-oxo-1-phenyl-1,4-dihydropyridazine-3-carboxamide] | 47 nM
